Measured values reported in patent US20180000085A1, “USE OF PICOLINAMIDE COMPOUNDS WITH FUNGICIDAL ACTIVITY” (DOW AGROSCIENCES LLC, priority 2014, published 2018).

Tests used:
Zymoseptoria tritici = experiment: Leaf blotch of wheat (SEPTTR) disease control on wheat seedlings; type: in vivo; set-up: key to SEPTTR 1DP, HV activity at 100 ppm (% control rating) / SEPTTR 3DC, HV activity at 100 ppm (% control rating) / SEPTTR disease control, 1DP / SEPTTR disease control, 3DC / SEPTTR 1DP disease control rating, HV activity / SEPTTR 3DC disease control rating, HV activity / SEPTTR 3DC, LV activity at 125.1 g/H (% Control rating) / SEPTTR 1DP, LV activity at 125.1 g/H (% Control rating) / SEPTTR 1DP disease control rating, LV activity at 125.1 g/H / SEPTTR 3DC disease control rating, LV activity at 125.1 g/H / SEPTTR 3DC disease control rating, HV activity at 100 ppm / SEPTTR 1DP disease control rating, HV activity at 100 ppm / HV activity at 100 ppm SEPTTR 3DC (disease control rating) / HV activity at 100 ppm SEPTTR 1DP (disease control rating) / LV activity at 125.1 g/H SEPTTR 1DP (disease control rating) / LV activity at 125.1 g/H SEPTTR 3DC (disease control rating): A: > 80; B: ≤ 80; C: Not Tested; D: No Activity Observed in the Reported Assay; conditions: for SEPTTR 1DP disease control rating, LV activity at 125.1 g/H / SEPTTR 3DC disease control rating, LV activity at 125.1 g/H / SEPTTR 1DP, LV activity at 125.1 g/H (% Control rating) / SEPTTR 3DC, LV activity at 125.1 g/H (% Control rating): low volume application; for SEPTTR 1DP disease control rating, LV activity at 125.1 g/H / SEPTTR 1DP disease control rating, HV activity at 100 ppm: 1 day protectant; for SEPTTR 3DC disease control rating, LV activity at 125.1 g/H / SEPTTR 3DC disease control rating, HV activity at 100 ppm: 3 day curative; for SEPTTR 1DP disease control rating, HV activity / SEPTTR 3DC disease control rating, HV activity: HV application at 100 ppm, wheat leaf blotch; for SEPTTR 1DP disease control rating, HV activity / SEPTTR 1DP, LV activity at 125.1 g/H (% Control rating): 1 Day Protectant; for SEPTTR 3DC disease control rating, HV activity / SEPTTR 3DC, LV activity at 125.1 g/H (% Control rating): 3 Day Curative; for SEPTTR 1DP disease control rating, HV activity at 100 ppm / SEPTTR 3DC disease control rating, HV activity at 100 ppm: high volume application
Puccinia triticina = experiment: Wheat brown rust (PUCCRT) disease control on wheat seedlings; type: in vivo; set-up: key to PUCCRT 3DC, HV activity at 100 ppm (% control rating) / PUCCRT disease control, 3DC / PUCCRT 1DP disease control rating, HV activity / PUCCRT 3DC disease control rating, HV activity / PUCCRT 3DC, LV activity at 125.1 g/H (% Control rating) / PUCCRT 1DP, LV activity at 125.1 g/H (% Control rating) / PUCCRT 3DC disease control rating, LV activity at 125.1 g/H / PUCCRT 1DP disease control rating, LV activity at 125.1 g/H / PUCCRT 3DC disease control rating, HV activity at 100 ppm / PUCCRT 1DP disease control rating, HV activity at 100 ppm / HV activity at 100 ppm PUCCRT 3DC (disease control rating) / LV activity at 125.1 g/H PUCCRT 1DP (disease control rating) / LV activity at 125.1 g/H PUCCRT 3DC (disease control rating): A: > 80; B: ≤ 80; C: Not Tested; D: No Activity Observed in the Reported Assay; conditions: for PUCCRT 1DP disease control rating, LV activity at 125.1 g/H / PUCCRT 3DC disease control rating, LV activity at 125.1 g/H / PUCCRT 1DP, LV activity at 125.1 g/H (% Control rating) / PUCCRT 3DC, LV activity at 125.1 g/H (% Control rating): low volume application; for PUCCRT 1DP disease control rating, LV activity at 125.1 g/H / PUCCRT 1DP disease control rating, HV activity at 100 ppm: 1 day protectant; for PUCCRT 3DC disease control rating, LV activity at 125.1 g/H / PUCCRT 3DC disease control rating, HV activity at 100 ppm: 3 day curative; for PUCCRT 1DP disease control rating, HV activity / PUCCRT 3DC disease control rating, HV activity: HV application at 100 ppm, wheat brown rust; for PUCCRT 1DP disease control rating, HV activity / PUCCRT 1DP, LV activity at 125.1 g/H (% Control rating): 1 Day Protectant; for PUCCRT 3DC disease control rating, HV activity / PUCCRT 3DC, LV activity at 125.1 g/H (% Control rating): 3 Day Curative; for PUCCRT 1DP disease control rating, HV activity at 100 ppm / PUCCRT 3DC disease control rating, HV activity at 100 ppm: high volume application

CCC(CC)C(Oc1cc(F)ccc1F)C(C)OC(=O)C(CC(C)C)NC(=O)c1nccc(OC)c1OCOC(C)=O (stereo not drawn) [Cmpd 682]
SEPTTR 1DP disease control rating, LV activity at 125.1 g/H (Zymoseptoria tritici): B (≤ 80)
SEPTTR 3DC disease control rating, LV activity at 125.1 g/H (Zymoseptoria tritici): B (≤ 80)
PUCCRT 1DP disease control rating, LV activity at 125.1 g/H (Puccinia triticina): B (≤ 80)
PUCCRT 3DC disease control rating, LV activity at 125.1 g/H (Puccinia triticina): B (≤ 80)

CCC(CC)C(Oc1cc(F)ccc1F)C(C)OC(=O)C(C)NC(=O)c1nccc(OC)c1O (stereo not drawn) [Cmpd 382]
SEPTTR 1DP disease control rating, HV activity (Zymoseptoria tritici): D
SEPTTR 3DC disease control rating, HV activity (Zymoseptoria tritici): B (≤ 80)
PUCCRT 1DP disease control rating, HV activity (Puccinia triticina): A (> 80)
PUCCRT 3DC disease control rating, HV activity (Puccinia triticina): A (> 80)

CCC(CC)C(Oc1cccc(-c2ccccc2)c1)C(C)OC(=O)C(C)NC(=O)c1nccc(OC)c1O (stereo not drawn) [Cmpd 386]
SEPTTR 1DP disease control rating, HV activity (Zymoseptoria tritici): D
SEPTTR 3DC disease control rating, HV activity (Zymoseptoria tritici): D
PUCCRT 1DP disease control rating, HV activity (Puccinia triticina): B (≤ 80)
PUCCRT 3DC disease control rating, HV activity (Puccinia triticina): B (≤ 80)

COc1ccnc(C(=O)N[C@@H](C)C(=O)O[C@@H](C)[C@H](Oc2cccc(Cl)c2)C2CCCC2)c1O [Cmpd 841, (S)-(1R,2S)-1-(3-chlorophenoxy)-1-cyclopentylpropan-2-yl-2-(3-hydroxy-4-methoxypicolinamido)propanoate]
SEPTTR 1DP disease control rating, HV activity at 100 ppm (Zymoseptoria tritici): A (> 80)
SEPTTR 3DC disease control rating, HV activity at 100 ppm (Zymoseptoria tritici): A (> 80)
PUCCRT 1DP disease control rating, HV activity at 100 ppm (Puccinia triticina): A (> 80)
PUCCRT 3DC disease control rating, HV activity at 100 ppm (Puccinia triticina): A (> 80)

CCC(CC)[C@@H](Oc1ccc(Cl)cc1Cl)[C@H](C)OC(=O)[C@H](C)NC(=O)c1nccc(OC)c1OC(C)=O [Cmpd 601]
SEPTTR 1DP, LV activity at 125.1 g/H (% Control rating) (Zymoseptoria tritici): B (≤ 80)
SEPTTR 3DC, LV activity at 125.1 g/H (% Control rating) (Zymoseptoria tritici): B (≤ 80)
PUCCRT 1DP, LV activity at 125.1 g/H (% Control rating) (Puccinia triticina): A (> 80)
PUCCRT 3DC, LV activity at 125.1 g/H (% Control rating) (Puccinia triticina): B (≤ 80)

COc1ccnc(C(=O)N[C@@H](C)C(=O)O[C@@H](C)[C@H](Oc2ccc(Cl)cc2Cl)C(C)C)c1O [Cmpd 358]
SEPTTR 1DP disease control rating, HV activity (Zymoseptoria tritici): B (≤ 80)
SEPTTR 3DC disease control rating, HV activity (Zymoseptoria tritici): B (≤ 80)
PUCCRT 1DP disease control rating, HV activity (Puccinia triticina): B (≤ 80)
PUCCRT 3DC disease control rating, HV activity (Puccinia triticina): B (≤ 80)

COc1ccnc(C(=O)NC(C)C(=O)OC(C)COC(=O)C(C)C)c1OCOC(C)=O (stereo not drawn) [Cmpd 530]
SEPTTR 1DP, LV activity at 125.1 g/H (% Control rating) (Zymoseptoria tritici): B (≤ 80)
SEPTTR 3DC, LV activity at 125.1 g/H (% Control rating) (Zymoseptoria tritici): B (≤ 80)
PUCCRT 1DP, LV activity at 125.1 g/H (% Control rating) (Puccinia triticina): D
PUCCRT 3DC, LV activity at 125.1 g/H (% Control rating) (Puccinia triticina): D

CCCOCC(C)OC(=O)C(C)NC(=O)c1nccc(OC)c1OC(C)=O (stereo not drawn) [Cmpd 521]
SEPTTR 1DP, LV activity at 125.1 g/H (% Control rating) (Zymoseptoria tritici): D
SEPTTR 3DC, LV activity at 125.1 g/H (% Control rating) (Zymoseptoria tritici): D
PUCCRT 1DP, LV activity at 125.1 g/H (% Control rating) (Puccinia triticina): D
PUCCRT 3DC, LV activity at 125.1 g/H (% Control rating) (Puccinia triticina): D

CC[C@H](Oc1ccccc1)[C@@H](Oc1ccccc1)[C@H](C)OC(=O)[C@H](C)NC(=O)c1nccc(OC)c1O [Cmpd 309]
SEPTTR 1DP disease control rating, HV activity (Zymoseptoria tritici): A (> 80)
SEPTTR 3DC disease control rating, HV activity (Zymoseptoria tritici): B (≤ 80)
PUCCRT 1DP disease control rating, HV activity (Puccinia triticina): A (> 80)
PUCCRT 3DC disease control rating, HV activity (Puccinia triticina): A (> 80)

C=CC[C@@H](Oc1ccc(Cl)cc1Cl)[C@H](C)OC(=O)[C@H](C)NC(=O)c1nccc(OC)c1OC(C)=O [Cmpd 697]
SEPTTR 1DP disease control rating, LV activity at 125.1 g/H (Zymoseptoria tritici): D
SEPTTR 3DC disease control rating, LV activity at 125.1 g/H (Zymoseptoria tritici): B (≤ 80)
PUCCRT 1DP disease control rating, LV activity at 125.1 g/H (Puccinia triticina): A (> 80)
PUCCRT 3DC disease control rating, LV activity at 125.1 g/H (Puccinia triticina): A (> 80)

CCC(CC)C(Oc1cc(F)cc(Cl)c1)C(C)OC(=O)C(CC(C)C)NC(=O)c1nccc(OC)c1O (stereo not drawn) [Cmpd 429]
SEPTTR 1DP disease control rating, HV activity (Zymoseptoria tritici): B (≤ 80)
SEPTTR 3DC disease control rating, HV activity (Zymoseptoria tritici): D
PUCCRT 1DP disease control rating, HV activity (Puccinia triticina): B (≤ 80)
PUCCRT 3DC disease control rating, HV activity (Puccinia triticina): D

COc1ccnc(C(=O)N[C@@H](CC(C)C)C(=O)O[C@@H](C)[C@H](Oc2ccccc2)C(C)C)c1O [Cmpd 813]
SEPTTR 1DP disease control rating, HV activity at 100 ppm (Zymoseptoria tritici): D
SEPTTR 3DC disease control rating, HV activity at 100 ppm (Zymoseptoria tritici): B (≤ 80)
PUCCRT 1DP disease control rating, HV activity at 100 ppm (Puccinia triticina): B (≤ 80)
PUCCRT 3DC disease control rating, HV activity at 100 ppm (Puccinia triticina): D
